Measured values as given in PubChem BioAssay (NCI).
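A five-concentration, 48-hour dose response in 96-well plates underlies each endpoint, interpolated linearly between surrounding concentrations. GI50 = concentration required for 50% inhibition of growth. TGI: total growth inhibition.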

Legend:
Assay in all cases: growth of human tumour cells (NCI), 48 h
[1] = system: MOLT-4 leukemia
[2] = system: UO-31 renal
[3] = system: HOP-92 NSCLC
[4] = system: HCT-15 colon
[5] = system: DU-145 prostate
[6] = system: SR leukemia
[7] = system: SK-MEL-5 melanoma
[8] = system: HCT-116 colon
[9] = system: BT-549 breast
[10] = system: OVCAR-4 ovarian

Cn1cc(-c2cc(-c3cn(C)c4ccccc34)[nH]n2)c2ccccc21 showed a GI50 [1] of 4.75 µM, a TGI [1] of 20.8 µM and a GI50 [2] of 37.6 µM. It also gave a TGI [2] of over 100 µM, a GI50 [3] of 2.06 µM and a TGI [3] of 9.57 µM. For the same molecule, the GI50 [4] was 8.68 µM, the TGI [4] was over 100 µM and the GI50 [5] was 15.6 µM. It also gave a TGI [5] of over 100 µM, a GI50 [6] of 3.46 µM and a TGI [6] of 14.8 µM. It also gave a GI50 [7] of 13.1 µM, a TGI [7] of over 100 µM and a GI50 [8] of 19 µM. It also gave a TGI [8] of over 100 µM, a GI50 [9] of 15.9 µM and a TGI [9] of 61.7 µM. It also gave a GI50 [10] of 34.9 µM and a TGI [10] of over 100 µM.

For CN1CCCCC1CCN1c2ccccc2Sc2ccc(Br)cc21 (stereo not given), the GI50 [1] was 2.83 µM, the TGI [1] was 7.83 µM and the GI50 [2] was 2.68 µM. For the same molecule, the TGI [2] was 10.8 µM, the GI50 [3] was 1.4 µM and the TGI [3] was 4.72 µM. It also gave a GI50 [4] of 3.17 µM, a TGI [4] of 10.2 µM and a GI50 [5] of 3.7 µM. For the same molecule, the TGI [5] was 12.6 µM, the GI50 [6] was 3.12 µM and the TGI [6] was 8.24 µM. The GI50 [7] was 1.78 µM, the TGI [7] was 3.47 µM and the GI50 [8] was 1.88 µM. For the same molecule, the TGI [8] was 3.67 µM, the GI50 [9] was 4.17 µM and the TGI [9] was 17.7 µM. It also gave a GI50 [10] of 3.6 µM and a TGI [10] of 13.6 µM.

CC(=O)ON(OCc1ccc2ccccc2c1)C(C)=O showed a GI50 [1] of over 100 µM, a TGI [1] of over 100 µM and a GI50 [2] of 85 µM. The TGI [2] was over 100 µM, the GI50 [3] was 34.8 µM and the TGI [3] was over 100 µM. The GI50 [4] was over 100 µM, the TGI [4] was over 100 µM and the GI50 [5] was over 100 µM. The TGI [5] was over 100 µM, the GI50 [6] was 86.5 µM and the TGI [6] was over 100 µM. For the same molecule, the GI50 [7] was 94.7 µM, the TGI [7] was over 100 µM and the GI50 [8] was over 100 µM. For the same molecule, the TGI [8] was over 100 µM, the GI50 [9] was over 100 µM and the TGI [9] was over 100 µM. The GI50 [10] was over 100 µM and the TGI [10] was over 100 µM.

With S=c1ssnc1-c1cc2ccccc2o1 the GI50 [1] was 3.39 µM, the TGI [1] was over 100 µM and the GI50 [2] was 13.4 µM. It also gave a TGI [2] of 30 µM, a GI50 [3] of 18.5 µM and a TGI [3] of 43.2 µM. The GI50 [4] was 11.5 µM, the TGI [4] was 25.5 µM and the GI50 [5] was 7.35 µM. It also gave a TGI [5] of 20.4 µM, a GI50 [6] of 3.04 µM and a TGI [6] of 18.3 µM. It also gave a GI50 [7] of 13.6 µM, a TGI [7] of 26.7 µM and a GI50 [8] of 9.3 µM. For the same molecule, the TGI [8] was 36.8 µM, the GI50 [9] was 13.8 µM and the TGI [9] was 27.7 µM. The GI50 [10] was 21.6 µM and the TGI [10] was over 100 µM.

Work on O=[N+]([O-])c1cccc(/C=N/Nc2ccc3ccccc3n2)c1O yielded a TGI [1] of 10.7 µM, a TGI [2] of 3 µM and a TGI [3] of over 46.9 µM. It also gave a TGI [4] of over 100 µM, a TGI [5] of 17.7 µM and a TGI [6] of 21.4 µM. For the same molecule, the TGI [7] was 3.45 µM, the TGI [8] was 4.77 µM and the TGI [9] was 37.9 µM. The TGI [10] was over 39.6 µM.

CC1(C)N=C(N)N=C(N)N1c1ccc(CCCC(=O)Nc2ccc(S(=O)(=O)F)cc2)cc1 was tested, and the GI50 [1] was 14.2 µM, the TGI [1] was over 100 µM and the GI50 [2] was over 100 µM. The TGI [2] was over 100 µM, the GI50 [3] was 10.7 µM and the TGI [3] was over 100 µM. It also gave a GI50 [4] of 39.3 µM, a TGI [4] of over 100 µM and a GI50 [5] of 6.98 µM. It also gave a TGI [5] of over 100 µM, a GI50 [6] of 1.53 µM and a TGI [6] of over 100 µM. It also gave a GI50 [7] of 3.2 µM, a TGI [7] of 28.1 µM and a GI50 [8] of 3.69 µM. It also gave a TGI [8] of over 100 µM, a GI50 [9] of 22.8 µM and a TGI [9] of over 100 µM. For the same molecule, the GI50 [10] was over 62.3 µM and the TGI [10] was over 100 µM.
